How the values were obtained:
Assay in all cases: relative viability (nuclei count vs DMSO), 5 days (fraction); higher = more cells survive
Ruxolitinib + Bortezomib = compound: N#CC[C@H](C1CCCC1)n1cc(-c2ncnc3[nH]ccc23)cn1 [Ruxolitinib] + CC(C)C[C@H](NC(=O)[C@H](Cc1ccccc1)NC(=O)c1cnccn1)B(O)O [Bortezomib] (partner 0.002 µM)
Method in brief: (§1)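 The day after seeding in 1536-well plates, lung cancer cell lines were treated by pin tool with a single drug, or with a fixed anchor-drug dose together with five library-drug doses (not always all listed) in √10 steps. After 5 days, a combined fix-and-stain solution (final 0.05% Triton X-100, 1% formaldehyde, 1 ug/ml Hoechst) was added. Nuclei counted on 4× images gave relative viability as treated counts over vehicle counts, reported as the median of duplicate plates.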

Vismodegib + Dasatinib = compound: CS(=O)(=O)c1ccc(C(=O)Nc2ccc(Cl)c(-c3ccccn3)c2)c(Cl)c1 [Vismodegib] + Cc1nc(Nc2ncc(C(=O)Nc3c(C)cccc3Cl)s2)cc(N2CCN(CCO)CC2)n1 [Dasatinib] (partner 0.075 µM)
Method in brief: as §1

VE-821 + Crizotinib = compound: CS(=O)(=O)c1ccc(-c2cnc(N)c(C(=O)Nc3ccccc3)n2)cc1 [VE-821] + C[C@@H](Oc1cc(-c2cnn(C3CCNCC3)c2)cnc1N)c1c(Cl)ccc(F)c1Cl [Crizotinib] (partner 1 µM)
Method in brief: as §1

VE-821 + Phenformin = compound: CS(=O)(=O)c1ccc(-c2cnc(N)c(C(=O)Nc3ccccc3)n2)cc1 [VE-821] + N=C(N)NC(=N)NCCc1ccccc1 [Phenformin] (partner 250 µM)
Method in brief: as §1

| Cell Line | relative viability (Ruxolitinib + Bortezomib; first compound 0.08 µM) | relative viability (Ruxolitinib + Bortezomib; first compound 0.253 µM) | relative viability (Ruxolitinib + Bortezomib; first compound 0.8 µM) | relative viability (Ruxolitinib + Bortezomib; first compound 2.53 µM) | relative viability (Ruxolitinib + Bortezomib; first compound 8 µM) | relative viability (Vismodegib + Dasatinib; first compound 0.08 µM) | relative viability (Vismodegib + Dasatinib; first compound 0.253 µM) | relative viability (Vismodegib + Dasatinib; first compound 0.8 µM) | relative viability (Vismodegib + Dasatinib; first compound 2.53 µM) | relative viability (Vismodegib + Dasatinib; first compound 8 µM) | relative viability (VE-821 + Crizotinib; first compound 0.08 µM) | relative viability (VE-821 + Crizotinib; first compound 0.253 µM) | relative viability (VE-821 + Crizotinib; first compound 0.8 µM) | relative viability (VE-821 + Crizotinib; first compound 2.53 µM) | relative viability (VE-821 + Crizotinib; first compound 8 µM) | relative viability (VE-821 + Phenformin; first compound 0.08 µM) | relative viability (VE-821 + Phenformin; first compound 0.253 µM) | relative viability (VE-821 + Phenformin; first compound 0.8 µM) | relative viability (VE-821 + Phenformin; first compound 2.53 µM) | relative viability (VE-821 + Phenformin; first compound 8 µM) |
| --- | --- | --- | --- | --- | --- | --- | --- | --- | --- | --- | --- | --- | --- | --- | --- | --- | --- | --- | --- | --- |
| NCI-H1651 | 0.944 | 0.923 | 0.937 | 0.794 | 0.969 | 0.434 | 0.446 | 0.388 | 0.349 | 0.591 | 0.844 | 0.914 | 0.853 | 0.837 | 0.872 | 0.349 | 0.305 | 0.361 | 0.32 | 0.283 |
| NCI-H1666 | 0.685 | 0.833 | 0.861 | 0.781 | 0.96 | 0.73 | 0.777 | 0.816 | 0.841 | 0.734 | 1.03 | 1.06 | 1.1 | 0.895 | 0.635 | 0.578 | 0.536 | 0.602 | 0.6 | 0.535 |
| NCI-H1734 | 0.928 | 0.924 | 0.983 | 0.74 | 0.835 | 0.44 | 0.498 | 0.482 | 0.446 | 0.537 | 0.827 | 0.649 | 0.585 | 0.726 | 0.541 | 0.392 | 0.386 | 0.377 | 0.402 | 0.271 |
| NCI-H1755 | 0.984 | 1.04 | 1.03 | 0.853 | 0.658 | 0.423 | 0.392 | 0.412 | 0.448 | 0.441 | 0.969 | 0.841 | 0.69 | 0.835 | 0.722 | 0.632 | 0.601 | 0.546 | 0.615 | 0.527 |
| NCI-H1792 | 0.957 | 0.905 | 0.911 | 0.834 | 0.774 | 0.697 | 0.726 | 0.673 | 0.505 | 0.655 | 0.831 | 0.99 | 0.947 | 1.01 | 0.949 | 0.332 |  | 0.281 | 0.342 | 0.258 |
| NCI-H1915 | 0.956 | 0.955 | 0.91 | 0.961 | 0.905 | 0.346 | 0.296 | 0.295 | 0.266 | 0.326 | 0.892 | 0.856 | 0.883 | 0.874 | 0.846 | 0.391 | 0.359 | 0.39 | 0.385 | 0.347 |
| NCI-H1975 | 0.415 | 0.382 | 0.482 | 0.303 | 0.316 | 0.347 | 0.338 | 0.371 | 0.267 | 0.348 | 1.02 | 0.944 | 0.777 | 0.758 | 0.652 | 0.397 | 0.394 |  | 0.418 | 0.36 |
| NCI-H1993 | 0.893 | 1.02 | 1.23 | 1.26 | 1.29 | 0.499 | 0.763 | 0.562 | 0.565 | 0.554 | 0.897 | 0.844 | 0.809 | 0.852 | 0.686 | 0.457 | 0.439 | 0.527 | 0.482 | 0.524 |
| NCI-H2009 | 1.19 | 0.963 | 1.31 | 0.828 | 0.646 | 0.286 | 0.261 | 0.234 | 0.3 | 0.344 | 1.08 | 1.01 | 0.963 | 1.02 | 0.879 | 0.507 | 0.471 | 0.498 | 0.461 | 0.36 |
| NCI-H2023 | 1.13 | 0.928 | 1.43 | 0.844 | 1.01 | 0.564 | 0.534 | 0.628 | 0.455 | 0.558 | 0.715 | 0.659 | 0.395 | 0.316 | 0.193 | 0.481 | 0.394 | 0.282 | 0.272 | 0.139 |
| NCI-H2085 | 0.964 | 1.06 | 1.26 | 0.904 | 0.822 | 0.26 | 0.244 | 0.22 | 0.217 | 0.213 | 1.02 | 0.755 | 0.824 | 0.954 | 0.755 | 0.762 | 0.674 | 0.558 | 0.869 | 0.481 |
| NCI-H2087 | 0.849 | 0.853 | 0.985 | 0.821 | 0.701 | 0.98 | 0.769 | 0.812 | 0.94 | 0.69 | 1.21 | 0.891 | 1 | 0.902 | 0.93 | 0.562 | 0.486 | 0.427 | 0.438 | 0.375 |
| NCI-H2126 | 1.12 | 1.21 | 1.24 | 1.15 | 1.18 | 0.666 | 0.57 | 0.554 | 0.544 | 0.473 | 1.02 | 0.954 | 0.954 | 0.965 | 0.859 | 0.565 | 0.494 | 0.51 | 0.514 | 0.409 |
| NCI-H2228 | 1.27 | 1.11 | 1.14 | 0.957 | 1.09 | 0.593 | 0.529 | 0.46 | 0.452 | 0.454 | 0.479 | 0.459 | 0.414 | 0.37 | 0.35 | 0.356 | 0.294 | 0.284 | 0.457 | 0.194 |
| NCI-H2347 |  | 0.907 | 0.931 | 0.917 | 1.2 | 0.281 | 0.35 | 0.331 | 0.272 | 0.293 | 0.723 | 0.794 | 0.684 | 0.983 | 0.713 | 0.476 | 0.295 | 0.347 | 0.495 | 0.358 |
| NCI-H2405 | 1.02 | 0.968 | 0.923 | 0.99 | 0.23 | 0.214 | 0.228 | 0.212 | 0.235 | 0.239 | 1.01 | 0.81 | 0.776 | 0.924 | 0.788 | 0.37 | 0.373 | 0.36 | 0.453 | 0.432 |

Reference: the supplement of paper PMC10307832
